Experiments:
FATZO mice [1] = conditions: for serum glucose concentrations in the fed state: after 8 weeks, vehicle 315.6±35.4; for serum glucose concentrations in the fed state / body weight change over the 8-week observation period: rosiglitazone 10 mg/kg/day, metformin 150 mg/kg/day; for body weight change over the 8-week observation period: oral once daily 8 weeks, vehicle 1.8±0.2
Protocol: Male FATZO mice (9 weeks of age, n=40) were maintained on Purina 5008 regular rodent chow and reverse osmosis water ad libitum. Mice were housed 3 per cage and acclimated to study environment for 7 days prior to study. At 10 weeks of age, mice were fasted for 6 hours, body weight was recorded and an OGTT performed. Glucose and insulin were assayed at 0, 30, 60, 90, 120 and 180 minutes following a 2 g/kg glucose load. Glucose concentrations were obtained from StatStrip glucometer and insulin was assayed at each time-point using the insulin kit mentioned above. Insulin sensitivity index (ISI) was calculated using a formula modified from Matsuda and DeFronzo [39] by changing the numerator to 10,000 and using glucose and insulin AUCs instead of average glucose and insulin levels ([…]/square root of [fasting glucose x fasting insulin]×[glucose AUC×insulin AUC during OGTT]).
Animals were randomized into 3 groups of 10 based on baseline ISI and body weight. […] Compounds were administered orally once daily by gavage for 8 weeks. Body weight was recorded weekly.
Following 8 weeks of treatment, OGTT was repeated one hour after compound administration. Whole blood was taken from tail clip and processed to serum. Treatment effects on glucose disposal, fed serum glucose, HbAlc, and ISI were compared to vehicle.

FATZO mice [2] = experiment: Effect of leptin on food intake in FATZO mice; type: in vivo, mouse; conditions: leptin 10 mg/kg, first 4 hours of darkness
Protocol: Two age groups of male FATZO mice were selected for leptin levels and the effect of leptin on food intake. Additional age matched groups of C57BL/6 were bled for leptin levels. Animals were acclimated to reverse light cycle for 7 days before being put on protocol. […] Serum was prepared from tail blood and leptin levels were analyzed (Meso Scale Discovery, K152BYC, Rockville, Md., USA). After blood collection, animals were given saline or leptin injections (10 mg/kg) and food intake data was recorded for the first 4 hours of darkness.

[3] = after 8 weeks of administration, compared to vehicle

| Compound | AUC for glucose during OGTT (FATZO mice [1]; [3]) | calculated insulin sensitivity index (ISI) (FATZO mice [1]; [3]) | insulin AUC during OGTT (FATZO mice [1]; [3]) | serum glucose concentrations in the fed state (FATZO mice [1]) [mg/dL] | body weight change over the 8-week observation period (FATZO mice [1]) [g] | food intake after leptin injection (FATZO mice [2]; FATZO at 10 weeks of age) | food consumption after leptin injection (FATZO mice [2]; young FATZO animals (5 weeks)) |
| --- | --- | --- | --- | --- | --- | --- | --- |
| CN(C)C(=N)N=C(N)N [metformin] | significant reductions | significant improvements | significant improvements | 250.0 ± 12.8 | -0.2 ± 0.6 |  |  |
| leptin |  |  |  |  |  | no significant reduction | significantly reduced |
| CN(CCOc1ccc(CC2SC(=O)NC2=O)cc1)c1ccccn1 (stereo not drawn) [rosiglitazone] |  |  |  | 233.3 ± 7.7 | 5.3 ± 0.7 |  |  |
